Source: ChEMBL document CHEMBL3763009, “Discovery of antiviral molecules for dengue: In silico search and biological evaluation” (Eur J Med Chem, 2016)
Active and inactive are the calls of the source. The calls are words filed in the database; no cut-off is given here.

What was measured:
dengue virus type 2 [1] = assay: Antiviral activity against Dengue virus 2 infected in human HepG2 cells assessed as NS1 level at < maximum non-toxic concentration after 72 hrs by sandwich ELISA (reference value: 44.5 +/- 3.2 PbU); assay type: functional
[2] = (§1) Inhibition of Dengue virus 2 recombinant 6xHis-tagged NS2B/NS3 serine protease using Boc-Gly-Arg-Arg-AMC as substrate measured for 60 mins by fluorimetric analysis; parameters: species or system dengue virus type 2
dengue virus type 2 [3] = assay: as §1
dengue virus type 2 [4] = assay: Antiviral activity against Dengue virus 2 infected in human HepG2 cells assessed as reduction in NS1 level at 19.5 uM after 72 hrs by sandwich ELISA relative to control; assay type: functional; parameters: scale not given: the % may be the effect or the level left
dengue virus type 2 [5] = assay: Antiviral activity against Dengue virus 2 infected in human HepG2 cells assessed as reduction in NS1 level at 9.8 uM administered 1 hr postinfection measured after 72 hrs by sandwich ELISA relative to control; assay type: functional; parameters: scale not given: the % may be the effect or the level left
[6] = Cytotoxicity against human HepG2 cells assessed as cell viability after 72 hrs by MTT assay; assay type: cell-based
[7] = Selectivity index, ratio of CC50 for human HepG2 cells to IC50 for Dengue virus 2 infected in human HepG2 cells; assay type: functional
dengue virus type 2 [8] = assay: Antiviral activity against Dengue virus 2 infected in human HepG2 cells assessed as reduction in NS1 level after 72 hrs by sandwich ELISA; assay type: functional, organism-based; conditions: HepG2, 72 h
dengue virus type 2 [9] = assay: Antiviral activity against Dengue virus 2 infected in human HepG2 cells assessed as reduction in NS1 level at 13.5 uM administered 1 hr postinfection measured after 72 hrs by sandwich ELISA relative to control; assay type: functional; parameters: scale not given: the % may be the effect or the level left
dengue virus type 2 [10] = assay: Antiviral activity against Dengue virus 2 infected in human HepG2 cells assessed as reduction in NS1 level at 100 uM administered 1 hr postinfection measured after 72 hrs by sandwich ELISA relative to control; assay type: functional, organism-based
HepG2 [11] = assay: Cytotoxicity against human HepG2 cells assessed as reduction in cell viability up to 100 uM after 72 hrs by MTT assay; assay type: cell-based; conditions: hepg2, 72 h
dengue virus type 2 [12] = assay: Antiviral activity against Dengue virus 2 infected in human HepG2 cells assessed as reduction in NS1 level at 12.5 uM administered 1 hr postinfection measured after 72 hrs by sandwich ELISA relative to control; assay type: functional, organism-based
HepG2 [13] = assay: Cytotoxicity against human HepG2 cells assessed as reduction in cell viability up to 12.5 uM after 72 hrs by MTT assay; assay type: cell-based; conditions: hepg2, 72 h
dengue virus type 2 [14] = assay: Antiviral activity against Dengue virus 2 infected in human HepG2 cells assessed as reduction in NS1 level at 85.7 uM administered 1 hr postinfection measured after 72 hrs by sandwich ELISA relative to control; assay type: functional; parameters: scale not given: the % may be the effect or the level left
dengue virus type 2 [15] = assay: Antiviral activity against Dengue virus 2 infected in human HepG2 cells assessed as reduction in NS1 level at 49.2 uM administered 1 hr postinfection measured after 72 hrs by sandwich ELISA relative to control; assay type: functional; parameters: scale not given: the % may be the effect or the level left

With `NC(=O)c1ncn([C@@H]2O[C@H](CO)[C@@H](O)[C@H]2O)n1` [RIBAVIRIN] the Activity (dengue virus type 2 [1]) was 8.3 PbU.
For `CC1(C)CC(=O)C2=C(C1)c1c(ccc3ccccc13)NC2c1ccc(-c2ccc(O)c(C(=O)O)c2)o1` (centres undefined), the IC50 [2] was 17.5 µM, the inhibition (dengue virus type 2 [3]) was “Dose-dependent effect” and the Activity (dengue virus type 2 [4]) was 69.8%. The Activity (dengue virus type 2 [5]) was 15.5%, the CC50 at 72 h [6] was 58.6 µM and the “Ratio CC50/IC50” value [7] was 3.9. For the same molecule, the IC50 (dengue virus type 2 [8]) was 14.9 µM.
In the case of `COc1ccc(C(c2c(O)c3ccccc3oc2=O)c2c(O)c3ccccc3oc2=O)cc1CSc1nc2ccccc2s1`, the Activity (dengue virus type 2 [9]) is reported as 73.9%, the IC50 [2] is reported as 9.09 µM and the inhibition (dengue virus type 2 [3]) is reported as “Dose-dependent effect”. For the same molecule, the CC50 at 72 h [6] was 42.1 µM, the “Ratio CC50/IC50” value [7] was 3.6 and the IC50 (dengue virus type 2 [8]) was 11.8 µM.
With `Cc1ccc2nc(-c3ccc(NC(=O)c4c(O)c5c(n(Cc6ccco6)c4=O)CCCC5)cc3)sc2c1` the Activity (dengue virus type 2 [10]) was “inactive”, the IC50 [2] was 608 µM and the inhibition (dengue virus type 2 [3]) was “Dose-dependent effect”. For the same molecule, the Activity (HepG2 [11]) was “Non-toxic”.
In the case of `O=c1oc2ccccc2c(O)c1C1c2ccccc2Oc2c1c(=O)oc1ccccc21` (centres undefined), the Activity (dengue virus type 2 [12]) is reported as “inactive”, the IC50 [2] is reported as 18.9 µM and the inhibition (dengue virus type 2 [3]) is reported as “Dose-dependent effect”. For the same molecule, the Activity (HepG2 [13]) was “Non-toxic”.
With `COc1ccc(C(c2c(O)c3ccccc3oc2=O)c2c(O)c3ccccc3oc2=O)cc1COc1ccc(NC(C)=O)cc1` the Activity (dengue virus type 2 [14]) was 79.9%, the IC50 [2] was 19.9 µM and the inhibition (dengue virus type 2 [3]) was “Dose-dependent effect”. The CC50 at 72 h [6] was 162 µM, the “Ratio CC50/IC50” value [7] was 2.6 and the Activity (dengue virus type 2 [15]) was 37%. For the same molecule, the IC50 (dengue virus type 2 [8]) was 61.5 µM.
